Measurements reported in article PMC10537354, “Pyrenebutyrate Enhances the Antibacterial Effect of Peptide-Coupled Antisense Peptide Nucleic Acids in Streptococcus pyogenes” (Microorganisms, 2023).

Columns and labels:
[1] = tested on: S. pyogenes serotype M49 strain 591; experiment: Bacterial killing assay, S. pyogenes; type: cell-based, Streptococcus pyogenes; details: 6 h; for log CFU reduction: S. pyogenes M49 591, 5 µM CPP–PNA, n = 5
Description: (§1) S. pneumoniae serotype 4 strain TIGR4: after culturing, S. pneumoniae serotype 4 strain TIGR4 was diluted to approximately 10^5 CFU/mL in phosphate-buffered saline (PBS)/THY (95%/5%). S. pyogenes serotype M49 strain 591: An overnight culture of S. pyogenes serotype M49 strain 591 was diluted to approximately 10^5 CFU/mL in PBS/BHI (70%/30%). An amount of 400 µL of the respective bacterial suspension was transferred to a 2 mL polypropylene reaction tube. 4-(1-pyrenyl)-butyric acid (Merck, Darmstadt, Germany) was dissolved to 1 M in DMSO. The solution was stored in the dark and further dilution steps were performed in PBS and 3% DMSO. An amount of 50 µL PyB in PBS/DMSO was added to the bacterial suspension at a final concentration of 50–400 µM and pre-incubated for 10 min at 37 °C and 7 rpm (Rotor SB3, Stuart, Staffordshire, UK). An amount of 50 µL PBS served as a mock control. Following pre-incubation, 50 µL of CPP–PNA solution was added to a final concentration of 5–10 µM or as indicated. An amount of 50 µL molecular grade H2O served as a mock control. The reaction tubes were incubated for another 6 h at 37 °C and 7 rpm. Killing kinetics were observed over 12 h. Samples were collected at time points of 2–12 h following addition of CPP–PNAs, and bacteria were plated on BHI solid medium following serial dilution. Agar plates were incubated for 24 h at 37 °C under a 5% CO2 atmosphere and CFUs were counted. The bacterial count at the beginning of the experiment was 1–3 × 10^5 CFU/mL. Each experiment was conducted at least three times in independent biological replicates.

[2] = tested on: S. pneumoniae serotype 4 strain TIGR4; experiment: Bacterial killing assay, S. pneumoniae; type: cell-based, Streptococcus pneumoniae; details: for Significance of the effect of PyB pre-treatment on antimicrobial efficacy (CFU reduction): S. pneumoniae TIGR4, 10 µM CPP–PNA, 200 µM PyB 10 min pre-treatment vs none, one-way ANOVA; for Change of antibacterial activity in the presence of PyB (non-significant trend): S. pneumoniae TIGR4, 200 µM PyB pre-treatment, related to proportion of positively charged residues of the CPP; for log CFU reduction: S. pneumoniae TIGR4, CPP-anti-gyrA PNA (10 µM in this experiment), without PyB
Description: as §1, with “The bacterial count at the beginning of the experiment was 1–3 × 10^5 CFU/mL.” left out

[3] = tested on: S. pyogenes serotype M49 strain 591; experiment: In vitro time killing assay (killing kinetics over 12 h); type: cell-based, Streptococcus pyogenes; details: n = 3
Description: as §1
Therefore, the kinetics of the antimicrobial activity of K8-conjugated anti-gyrA PNA in the presence of PyB were studied in an in vitro time killing assay in S. pyogenes. Bacteria were treated with 2.5 or 5 μM CPP-antisense PNAs or scrambled control PNAs (Figure 3) with or without pre-treatment with 100 µM PyB. Samples were collected at 2, 4, 6, and 12 h following antisense treatment. CFUs per milliliter were determined by plating of serial dilutions and plotted over time. Untreated bacteria grew by 1–1.5 log CFU over the course of the experiment. […] Following treatment with 2.5 µM K8-conjugated scPNA, no reduction in bacterial counts was observed throughout the experiment. Upon treatment with 5 µM K8-conjugated scPNA, growth was reduced by 0.6 log CFU in comparison to the untreated control, indicating an inhibitory effect of the CPP under these conditions. Overall, pre-treatment with PyB enhanced the activity of K8-anti-gyrA PNA and allowed the eradication of S. pyogenes in vitro.

## O=C(O)CCCc1ccc2ccc3cccc4ccc1c2c34 [PyB, 4-(1-pyrenyl)-butyric acid, reference compound]
[1]; S. pyogenes 591, 5 × 10^5 CFU/mL, PyB alone 50–200 µM, stated up to 200 µM, n = 4
  Toxicity of PyB (CFU/mL compared to untreated control): No significant toxicity
[1]; S. pyogenes, 200 µM PyB alone, n = 4
  Viable counts after treatment with PyB: decreased slightly
[2]; S. pneumoniae TIGR4, 8 × 10^5 CFU/mL, PyB alone 50–400 µM, 6 h, stated up to 400 µM, n = 4
  Toxicity of PyB (CFU/mL compared to untreated control): unaffected

## RRRRRRRRR-eg-tgcattaata [R9-anti-gyrA PNA, R9 coupled to anti-gyrA PNA tgcattaata, S. pneumoniae]
[2]; 6 h
  Significance of the effect of PyB pre-treatment on antimicrobial efficacy (CFU reduction): no significant effect
  log CFU reduction: 4 log CFU
[2]
  Change of antibacterial activity in the presence of PyB (non-significant trend): slightly increased

## KKKKKKKK-eg-attagactgt [K8-anti-gyrA scPNA, Oligolysin (K8) coupled to scrambled control PNA attagactgt, S. pyogenes]
[3]; 2.5 µM scrambled control, 12 h
  Reduction in bacterial counts throughout the experiment: no reduction
[3]; 5 µM scrambled control, 12 h course
  Growth reduction in comparison to the untreated control: 0.6 log CFU

## RQIRIWFQNRRMRWRR-eg-tgcattaata [PenArg-anti-gyrA PNA, PenArg coupled to anti-gyrA PNA tgcattaata, S. pneumoniae]
[2]; 6 h
  Significance of the effect of PyB pre-treatment on antimicrobial efficacy (CFU reduction): no significant effect
  log CFU reduction: 3.3 log CFU
[2]
  Change of antibacterial activity in the presence of PyB (non-significant trend): not enhanced

## KKKKKKKK-eg-tgcatttaag [K8-anti-gyrA PNA, Oligolysin (K8) coupled to anti-gyrA PNA tgcatttaag, S. pyogenes]
[1]; after pre-treatment with 100 µM PyB for 10 min
  log CFU reduction: 4.8 log CFU
[1]; without PyB pre-treatment, PBS/BHI (70%/30%)
  log CFU reduction: 3.7 log CFU
[3]; 5 µM, after pre-treatment with 100 µM PyB
  Time until clearance of S. pyogenes CFUs: 12 h
[3]; 2.5 or 5 µM, without PyB, 12 h
  Eradication of S. pyogenes during the course of the assay: not eradicated
[3]; 2.5 or 5 µM, without PyB, samples at 2, 4, 6, 12 h
  Viable bacteria over time: constant decrease

## RXRRXRRXRRXRXB-eg ^1 -tgcatttaag [(RXR)4XB-anti-gyrA PNA, (RXR)4XB coupled via eg linker to anti-gyrA PNA tgcatttaag, S. pyogenes]
[2]; 6 h
  Significance of the effect of PyB pre-treatment on antimicrobial efficacy (CFU reduction): did not significantly enhance
[2]
  Change of antibacterial activity in the presence of PyB (non-significant trend): not enhanced
